Reference: patent US20180338937A1, “PHARMACEUTICAL PREPARATIONS” (Analyticon Discovery GmbH, priority 2015, published 2018)

How the values were obtained:
[1] = Sensory tasting of a Calpol ® solution, sip and spit, five assessors; format: in vivo, human; settings: Calpol ® suspension in water, paracetamol 12.5 mg/ml, 25 μM dehydroabietic acid, 0.5% ethanol
Procedure: Taste Modulation of Paracetamol in a Commercially Available Formulation The sensory evaluation of the samples was performed by a team of five experienced assessors. Details may be taken from the following Table 1: [table]

[2] = Sensory tasting of a maltitol/ibuprofen solution, sip and spit; format: in vivo, human; settings: Ibuprofen/maltitol syrup in water, 25 μM dehydroabietic acid, 0.5% ethanol, vs comparison sample
[3] = Sensory tasting of a maltitol/paracetamol solution, sip and spit; format: in vivo, human; settings: Paracetamol/maltitol syrup in water, paracetamol 12.5 mg/ml, 25 μM dehydroabietic acid, 0.5% ethanol, vs comparison sample
Procedure: Taste Modulation of Paracetamol in a Maltitol Formulation The sensory evaluation of the samples was performed by a team of five experienced assessors. Details may be taken from the following Table 2: [table]

[4] = Sepulveda et al., Pharmacol. Res. 52(5), 429-437 (2005); cited from earlier work
[5] = Sensory tasting of a solution of an ibuprofen suspension (Asda), sip and spit; format: in vivo, human; settings: Ibuprofen suspension (orange taste, no sweeteners) in water, ibuprofen 5 mg/ml, 25 μM dehydroabietic acid, 0.5% ethanol, vs comparison sample
Procedure: Taste Modulation of Ibuprofen in Suspension (Asda) The sensory evaluation of the samples was performed by a team of five experienced assessors. Details may be taken from the following Table 5: [table]

cyclooxygenase = settings: U.S. Pat. No. 6,365,634 B1 (RUSSEL); cited from earlier work
[6] = Sensory tasting of a Nurofen ® tablet solution, sip and spit; format: in vivo, human; settings: Nurofen ® tablets dissolved in water, ibuprofen 5 mg/ml, 25 μM dehydroabietic acid, 0.5% ethanol, vs comparison sample
Procedure: Taste Modulation of Ibuprofen in the Form of Tablets with Lysine (Nurofen®) The sensory evaluation of the samples was performed by a team of five experienced assessors.

[7] = Sensory tasting of a solution of a Nurofen ® suspension, sip and spit; format: in vivo, human; settings: Nurofen ® suspension dissolved in water, ibuprofen 5 mg/ml, 25 μM dehydroabietic acid, 0.5% ethanol, vs comparison sample
Procedure: Taste Modulation of Ibuprofen in Suspension (Nurofen®) The sensory evaluation of the samples was performed by a team of five experienced assessors.

[8] = cited from earlier work

In the case of `CC(C)c1ccc2c(c1)CC[C@H]1[C@](C)(C(=O)O)CCC[C@]21C` [dehydroabietic acid], the “Evaluation of the sample: metallic taste” value ([1]; vs comparison sample) is reported as “metallic taste reduced”, the “Evaluation of the sample: bitterness” value ([1]; vs comparison sample without dehydroabietic acid) is reported as “very significantly less bitter” and the “Evaluation of the sample: aftertaste” value ([2]; 5 mg/ml) is reported as “less unpleasant aftertaste”. For the same compound, the “Evaluation of the sample: burning sensation on the tongue/in the throat” value ([2]; 5 mg/ml) was “alleviation of the burning sensation”, the “Evaluation of the sample: mouth dryness” value ([2]; 5 mg/ml) was “reduced mouth dryness” and the “Evaluation of the sample: sweetness” value ([2]; 5 mg/ml) was “slightly sweet”. The “Evaluation of the sample: bitterness” value ([2]; ibuprofen 5 mg/ml) was “less bitter”, the “Evaluation of the sample: aftertaste” value [3] was “pleasant aftertaste” and the “Evaluation of the sample: bitterness” value [3] was “Bitterness reduced and delayed”. The “Evaluation of the sample: taste at the beginning” value [3] was “better taste at the beginning and more”, the “Evaluation of the sample: unpleasant/metallic taste” value [3] was “no long-lasting unpleasant/metallic taste” and the gastroprotective properties [4] was “has gastroprotective properties”. The “Evaluation of the sample: bitterness” value [5] was “less bitter”, the “Evaluation of the sample: orange aroma” value [5] was “intensification of the orange aroma” and the “Evaluation of the sample: overall taste” value [5] was “more pleasant taste”. For the same compound, the “Evaluation of the sample: sweetness” value [5] was “more sweet”, the “inhibition of the cyclooxygenase” value (cyclooxygenase) was “inhibit the cyclooxygenase” and the “Evaluation of the sample: bitterness” value [6] was “reduced bitterness”. The “Evaluation of the sample: delayed burning sensation in the throat” value [6] was “no change to the delayed burning” and the “Evaluation of the sample: typical natural taste of ibuprofen” value [7] was “Masking of the typical natural taste”.
For `C=C1C[C@@]23CC[C@H]4[C@@](C)(CCC[C@@]4(C)C(=O)O[C@@H]4O[C@H](CO)[C@@H](O)[C@H](O)[C@H]4O)[C@@H]2CC[C@]1(O[C@@H]1O[C@H](CO)[C@@H](O)[C@H](O)[C@H]1O[C@@H]1O[C@H](CO)[C@@H](O)[C@H](O)[C@H]1O)C3` [stevioside], the “daily uptake considered harmless” value [8] is listed as “up to 4 mg stevioside per kilogramme of bodyweight”.
